Experiments:
[1] = tested on: phospho-ERK in AsPC-1 (G12D) cells; assay: Inhibition of KRas-mediated phosphorylation of ERK (in-cell western); format: cell-based; details: Homo sapiens, ASPC1, 3 h, 3 hours compound, phospho-ERK normalized to GAPDH
In short: (§1)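 Fixed-cell immunodetection of ERK phosphorylation following 3 h compound treatment (0.5% DMSO). IC50 derived by 4-parameter fit of GAPDH-normalized signal versus DMSO control.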

[2] = tested on: phospho-ERK in MKN1 (WTdep) cells; assay: as above; format: cell-based; details: Homo sapiens, MKN-1, 3 hours compound, phospho-ERK normalized to GAPDH
In short: as §1

[3] = tested on: phospho-ERK in NCI-H460 (Q61H) cells; assay: as above; format: cell-based; details: Homo sapiens, NCI-H460, 3 h, 3 hours compound, phospho-ERK normalized to GAPDH
In short: as §1

[4] = tested on: phospho-ERK in NCI-H727 (G12V) cells; assay: as above; format: cell-based; details: Homo sapiens, NCI-H727, 3 h, 3 hours compound, phospho-ERK normalized to GAPDH
In short: as §1

KRas G12D = KRas G12D (Homo sapiens, UniProt P01116, G12D); assay: biochemical;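 note: TR-FRET displacement binding assay on KRas, read after a one-hour incubation at room temperature, IC50 fitted from percent-of-control values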
Chain of KRas G12D (P01116 1-169 isoform P01116-2 G12D): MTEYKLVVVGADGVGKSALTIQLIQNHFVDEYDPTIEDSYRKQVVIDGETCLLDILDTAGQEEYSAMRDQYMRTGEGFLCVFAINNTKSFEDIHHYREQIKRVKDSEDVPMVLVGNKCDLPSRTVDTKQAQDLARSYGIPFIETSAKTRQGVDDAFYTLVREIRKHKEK
Description: (§2) The ability of a compound to bind to KRas was measured using a TR-FRET displacement assay. […] After a 60-minute incubation at room temperature, the reaction was measured using a BMG LABTECH CLARIO star Plus via TR-FRET. […] The POC values were fit to a 4-parameter IC50 equation and the IC50 value reported.

KRas G12V = KRas G12V (Homo sapiens, UniProt P01116, G12V); assay: biochemical;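 note: KRas binding measured by TR-FRET displacement at room temperature, IC50 fitted from percent of control values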
Chain of KRas G12V (P01116 1-169 isoform P01116-2 G12V): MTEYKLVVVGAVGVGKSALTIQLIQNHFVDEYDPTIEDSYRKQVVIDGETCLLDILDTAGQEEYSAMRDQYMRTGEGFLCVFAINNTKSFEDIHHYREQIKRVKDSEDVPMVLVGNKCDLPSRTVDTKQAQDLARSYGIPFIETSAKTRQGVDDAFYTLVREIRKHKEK
Description: as §2

KRas G12R = KRas G12R (Homo sapiens, UniProt P01116, G12R); assay: biochemical;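 note: TR-FRET displacement assay of compound binding to KRas, read after one hour at room temperature, potency from a four-parameter fit of percent-of-control values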
Chain of KRas G12R (P01116 1-169 isoform P01116-2 G12R): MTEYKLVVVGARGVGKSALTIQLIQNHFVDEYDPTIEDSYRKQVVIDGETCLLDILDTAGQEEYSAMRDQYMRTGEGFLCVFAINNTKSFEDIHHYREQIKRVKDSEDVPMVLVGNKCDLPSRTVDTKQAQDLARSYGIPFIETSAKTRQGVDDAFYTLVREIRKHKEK
Description: as §2

pERK in MKN1 cells = assay: Inhibition of KRas phosphorylation of ERK (Cisbio HTRF pERK assay); details: Homo sapiens, MKN-1, 3 h, read-out: Inhibition (HTRF IC50) of KRas-mediated Phosphorylation of ERK, MKN1
pERK in PSN1 cells = assay: as above; details: Homo sapiens, PSN1, 3 h, read-out: Inhibition (HTRF IC50) of KRas-mediated Phosphorylation of ERK, PSN1
pERK in ASPC1 cells = assay: as above; details: Homo sapiens, ASPC1, read-out: Inhibition (HTRF IC50) of KRas-mediated Phosphorylation of ERK, AsPC-1
pERK in H727 cells = assay: as above; details: Homo sapiens, NCI-H727, read-out: Inhibition (HTRF IC50) of KRas-mediated Phosphorylation of ERK, H727
Description: (§3) To harvest cells from flask using 0.05% Trypsin/EDTA solution. Add 10 mL of media to stop trypsinizing. Pipette the cells into a conical bottom 50 mL centrifuge tube and centrifuge 5 min×1000 rpm. • 2. Re-suspend the cell pellet in media, take a cell count, and then adjust the cell density using fresh media. • 3. Seed 6,000 cells into cell culture plate with 50 μL media. […] Incubate cell plate overnight in a 37° C., 5% CO2 incubator. • Compound titrations • 1. Use Tecan to complete the compound addition. Compounds start from 10 uM top, 3-fold dilution, and 10 doses. The final DMSO concentration is 0.8%. Dispensed 0.2 uM Trametinib as Min control. • 2. Incubate cell plate for 3 hrs in the incubator. • Detection with cisbio pERK HTRF kit • 1. […] At the end of the compound treatment, flick-off the media. • 3. Add 35 μL of lysis buffer per well using a Multidrop Combi. Then place on a plate agitator shaking at 300 rpm at 4° C. for 40 mins. • 4. Make up the HTRF antibody buffer. For each assay plate, mix 50 μL of d2-conjugate antibody with 950 μL of detection buffer. Similarly, mix 50 μL of Cryptate antibody with 950 μL of detection buffer. Then mix the two diluted antibodies together. • 5. Dispense 3.4 μL the antibody buffer to wells of an empty assay plate. Seal the plate and centrifuge plate 30 sec×1000 rpm. • 6. At the end of the 4° C. lysis, centrifuge the lysate plates 3 mins×1500 rpm. • 7. Use the Bravo to transfer 13.6 μL of lysate from cell culture plate to assay plate.
(§4) Then incubate assay plate for 2 hrs at room temperature. […] At the end of incubation, read plate on the Envision after centrifuging plate 30 sec× • 1000 rpm.

pERK in A549 cells = assay: as above; details: Homo sapiens, A549, read-out: Inhibition (HTRF IC50) of KRas-mediated Phosphorylation of ERK, A549
pERK in H460 cells = assay: as above; details: Homo sapiens, NCI-H460, read-out: Inhibition (HTRF IC50) of KRas-mediated Phosphorylation of ERK, H460
pERK in HCT116 cells = assay: as above; details: Homo sapiens, HCT-116, read-out: Inhibition (HTRF IC50) of KRas-mediated Phosphorylation of ERK, HCT116
Description: as §3, §4

pERK in H358 cells = assay: as above; details: Homo sapiens, NCI-H358, read-out: Inhibition (HTRF IC50) of KRas-mediated Phosphorylation of ERK, H358
Description: as §3, §4

KRas G12A = KRas G12A (Homo sapiens, UniProt P01116, G12A); assay: biochemical;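 note: binding to KRas measured by TR-FRET displacement after one hour at room temperature, IC50 from a four-parameter fit of percent-of-control values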
Chain of KRas G12A (P01116 1-169 isoform P01116-2 G12A): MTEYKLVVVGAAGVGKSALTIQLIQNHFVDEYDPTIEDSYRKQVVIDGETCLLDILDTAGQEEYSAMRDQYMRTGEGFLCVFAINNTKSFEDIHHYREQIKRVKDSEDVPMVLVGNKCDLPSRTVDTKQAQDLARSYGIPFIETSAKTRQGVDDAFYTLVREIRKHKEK
Description: as §2

KRas G12S = KRas G12S (Homo sapiens, UniProt P01116, G12S); assay: biochemical;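 note: TR-FRET displacement binding to KRas, read after one hour incubation at room temperature, IC50 from four-parameter fit of percent of control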
Chain of KRas G12S (P01116 1-169 isoform P01116-2 G12S): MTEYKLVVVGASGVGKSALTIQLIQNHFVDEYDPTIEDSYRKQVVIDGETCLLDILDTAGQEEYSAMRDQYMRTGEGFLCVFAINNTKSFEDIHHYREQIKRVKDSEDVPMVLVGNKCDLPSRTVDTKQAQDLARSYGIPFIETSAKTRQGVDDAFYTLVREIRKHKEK
Description: as §2

KRas G12C = KRas G12C (Homo sapiens, UniProt P01116, G12C); assay: biochemical;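 note: binding to KRas assessed by TR-FRET displacement after one hour incubation at room temperature, potency fitted from percent-of-control values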
Chain of KRas G12C (P01116 1-169 isoform P01116-2 G12C): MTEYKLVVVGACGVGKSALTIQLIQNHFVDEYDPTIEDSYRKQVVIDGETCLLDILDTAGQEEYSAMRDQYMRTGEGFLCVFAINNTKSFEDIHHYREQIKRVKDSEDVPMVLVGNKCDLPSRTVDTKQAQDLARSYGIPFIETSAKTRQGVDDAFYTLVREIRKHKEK
Description: as §2

KRas WT = KRas WT (Homo sapiens, UniProt P01116); assay: biochemical;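 note: binding to KRas read as TR-FRET displacement after a one-hour room-temperature incubation, IC50 derived from percent-of-control values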
Chain of KRas WT (P01116 1-169 isoform P01116-2): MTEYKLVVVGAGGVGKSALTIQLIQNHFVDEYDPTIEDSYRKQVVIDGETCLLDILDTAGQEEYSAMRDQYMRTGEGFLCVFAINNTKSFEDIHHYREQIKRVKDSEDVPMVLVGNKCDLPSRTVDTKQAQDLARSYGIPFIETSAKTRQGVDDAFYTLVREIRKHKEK
Description: as §2

Row | Structure (SMILES) | IC50 [1] | IC50 [2] | IC50 [3] | IC50 [4] | IC50 (KRas G12D) | IC50 (KRas G12V) | IC50 (KRas G12R) | IC50 (pERK in MKN1 cells) | IC50 (pERK in PSN1 cells) | IC50 (pERK in ASPC1 cells) | IC50 (pERK in H727 cells) | IC50 (pERK in A549 cells) | IC50 (pERK in H460 cells) | IC50 (pERK in HCT116 cells) | IC50 (pERK in H358 cells) | IC50 (KRas G12A) | IC50 (KRas G12S) | IC50 (KRas G12C) | IC50 (KRas WT)
1 | CCc1c(F)ccc2cc(O)cc(-c3ncc4c(N5CCC[C@]6(CC(=O)N6)C5)nc(OC[C@@]56CCCN5C[C@H](F)C6)nc4c3F)c12 (single isomer, unassigned) [Example 194] | 92 nM | 7 nM | 65 nM | 89 nM | ≤ 2 nM | ≤ 2 nM | ≤ 2 nM | 3 nM | 1350 nM | 20 nM | 34 nM | 63 nM | 55 nM | 686 nM | 4 nM | – | – | – | –
2 | CCc1c(F)ccc2cc(O)cc(-c3ncc4c(N5CCCC(O)(C(F)F)C5)nc(OC[C@@]56CCCN5C[C@H](F)C6)nc4c3F)c12 (stereo partly shown) [Example 184] | 66 nM | – | 30 nM | 201 nM | ≤ 2 nM | ≤ 2 nM | 3 nM | 7 nM | 1230 nM | 7 nM | 90 nM | 44 nM | 39 nM | 91 nM | 15 nM | – | – | – | –
3 | CCc1c(F)ccc2cc(O)cc(-c3ncc4c(N5CC6C(=O)NC(=O)C6C5)nc(OC[C@@]56CCCN5C[C@H](F)C6)nc4c3F)c12 (stereo partly shown) [Example 197] | 144 nM | 11 nM | 293 nM | 841 nM | ≤ 2 nM | ≤ 2 nM | ≤ 2 nM | 23 nM | ≥ 10000 nM | 57 nM | 348 nM | – | 183 nM | 620 nM | 112 nM | – | – | – | –
4 | C#Cc1c(F)ccc2cc(O)cc(-c3ncc4c(N5CCOC[C@@](C)(O)C5)nc(OC[C@@]56CCCN5C[C@H](F)C6)nc4c3F)c12 [Example 201, (S)-4-(7-(8-ethynyl-7-fluoro-3-hydroxynaphthalen-1-yl)-8-fluoro-2-(((2R,7aS)-2-fluorohexahydro-1H-pyrrolizin-7a-yl)methoxy)pyrido[4,3-d]pyrimidin-4-yl)-6-methyl-1,4-oxazepan-6-ol] | 91 nM | 2 nM | 100 nM | 110 nM | ≤ 2 nM | ≤ 2 nM | ≤ 2 nM | 15 nM | 2390 nM | 23 nM | 42 nM | 223 nM | 118 nM | 187 nM | 12 nM | – | – | – | –
5 | CCc1c(F)ccc2cc(O)cc(-c3ncc4c(N5CCC[C@@]6(CNC(=O)N6)C5)nc(OC[C@@]56CCCN5C[C@H](F)C6)nc4c3F)c12 [Example 300, (R)-7-(7-(8-ethyl-7-fluoro-3-hydroxynaphthalen-1-yl)-8-fluoro-2-(((2R,7aS)-2-fluorohexahydro-1H-pyrrolizin-7a-yl)methoxy)pyrido[4,3-d]pyrimidin-4-yl)-1,3,7triazaspiro[4.5]decan-2-one] | 251 nM | 37 nM | 71 nM | 372 nM | ≤ 2 nM | ≤ 2 nM | ≤ 2 nM | 7 nM | 1380 nM | 38 nM | 89 nM | – | – | – | 14 nM | – | – | – | –
6 | CCc1c(F)ccc2cc(O)cc(-c3ncc4c(N5CCC[C@@](C)(O)C5)nc(OC[C@@]56CCCN5[C@@H](CO)CC6)nc4c3F)c12 [Example 301, (R)-1-(7-(8-ethyl-7-fluoro-3-hydroxynaphthalen-1-yl)-8-fluoro-2-(((3R,7aS)-3-(hydroxymethyl)tetrahydro-1H-pyrrolizin-7a(5H)-yl)methoxy)pyrido[4,3-d]pyrimidin-4-yl)-3-methylpiperidin-3-ol] | 216 nM | 15 nM | 416 nM | 520 nM | ≤ 2 nM | ≤ 2 nM | ≤ 2 nM | 14 nM | 3930 nM | 54 nM | 199 nM | – | 216 nM | 456 nM | 46 nM | – | – | – | –
7 | CCc1c(F)ccc2cc(O)cc(-c3ncc4c(N5CCCCCC(S(C)(=O)=O)C5)nc(OC[C@@]56CCCN5C[C@H](F)C6)nc4c3F)c12 (stereo partly drawn) [Example 309, 5-ethyl-6-fluoro-4-(8-fluoro-2-(((2R,7aS)-2-fluorohexahydro-1H-pyrrolizin-7a-yl)methoxy)-4-(3-(methylsulfonyl)azocan-1-yl)pyrido[4,3-d]pyrimidin-7-yl)naphthalen-2-ol] | 176 nM | – | 59 nM | 272 nM | 4 nM | ≤ 2 nM | 3 nM | 2 nM | 8330 nM | 54 nM | 37 nM | 113 nM | 57 nM | 26 nM | 26 nM | – | – | – | –
8 | CCc1c(F)ccc2cc(O)cc(-c3ncc4c(N5CCCn6nc(C(=O)N(C)C)cc6C5)nc(OC[C@@]56CCCN5C[C@H](F)C6)nc4c3F)c12 [Example 326, 5-(7-(8-ethyl-7-fluoro-3-hydroxynaphthalen-1-yl)-8-fluoro-2-(((2R,7aS)-2-fluorohexahydro-1H-pyrrolizin-7a-yl)methoxy)pyrido[4,3-d]pyrimidin-4-yl)-N,N-dimethyl-5,6,7,8-tetrahydro-4H-pyrazolo[1,5-a][1,4]diazepine-2-carboxamide] | – | – | – | – | ≤ 2 nM | ≤ 2 nM | ≤ 2 nM | 8 nM | ≥ 10000 nM | 10 nM | 26 nM | 138 nM | 253 nM | 274 nM | 18 nM | ≤ 2 nM | ≤ 2 nM | ≤ 2 nM | ≤ 2 nM
9 | C#Cc1c(F)ccc2cc(O)cc(-c3ncc4c(N5C[C@@H]6C[C@H](C5)[C@H](O)C6)nc(OC[C@@]56CCCN5C[C@H](F)C6)nc4c3F)c12 [Example 388, (1R,5R,6R)-3-(7-(8-ethynyl-7-fluoro-3-hydroxynaphthalen-1-yl)-8-fluoro-2-(((2R,7aS)-2-fluorohexahydro-1II-pyrrolizin-7a-yl)methoxy)pyrido[4,3-d]pyrimidin-4-yl)-3-azabicyclo[3,2,1]octan-6-ol] | – | – | 16 nM | 16 nM | ≤ 2 nM | ≤ 2 nM | ≤ 2 nM | 8 nM | 409 nM | 14 nM | 5 nM | 18 nM | 21 nM | 9 nM | 1 nM | ≤ 2 nM | ≤ 2 nM | ≤ 2 nM | ≤ 2 nM

From patent US12398154B2, “Azaquinazoline pan-KRas inhibitors” (Mirati Therapeutics, Inc., priority 2020, dated 2025)
